Experimental findings from patent US11912663B2, “Multi-targeted tyrosine kinase inhibitors and their pharmaceutical uses” (Shanghai AB PharmaTech Ltd., priority 2021, dated 2024) are described below.

Series [1] concerns kidney cancer cell line (Caki-1). The experiment in a line: tumor cell proliferation inhibition (CTG), kidney cancer cell line. It counts as cell-based. Particulars: Homo sapiens, 72 hours, read-out: Caki-1 (renal cancer) IC50.
Series [2] relates to cervical cancer cell lines (Hela). The experiment in a line: tumor cell proliferation inhibition (CTG), cervical cancer cell line. It counts as cell-based. Particulars: Homo sapiens, 72 hours.
Another series has as its target FGFR2 (Homo sapiens (Human), UniProt P21802). The experiment in a line: kinase inhibition, Mobility-Shift Assay. It counts as biochemical. Particulars: 1.9 μM ATP.
The next series has as its target VEGFR1 (FLT1) (Homo sapiens (Human), UniProt P17948). The experiment in a line: kinase inhibition, Mobility-Shift Assay. It counts as biochemical. Particulars: 278 μM ATP.
The test system of series [3] is pancreatic cancer cell line (BXPC3). The series is described as follows: tumor cell proliferation inhibition (CTG), pancreatic cancer cell line. It counts as cell-based. As to conditions: Homo sapiens, BXPC-3, 72 hours.
Series [4] has as its system lung cancer cell line (A549). The experiment in a line: tumor cell proliferation inhibition (CTG), lung cancer cell line. As to conditions: Homo sapiens, 72 hours. It is filed as cell-based.
The test system of series [5] is BXPC3, SNU16, Hep3B 2.1-7 subcutaneous tumors. The experiment in a line: tumor suppression in nude mice with subcutaneously transplanted tumors. As to conditions: BXPC3, SNU16, Hep3B 2.1-7 transplants, within 3-4 weeks. It counts as in vivo. From the text: These preferred compounds (e.g., IIIb-08, IIIb-09, IIIb-45, IIIb-50, IIIb-55, IIIb-56, IIIb-57, IIIb-58, IIIb-60, IIIb-61, IIIb-65) are currently being used to […] in nude mice subcutaneously transplanted with pancreatic cancer cell line (BXPC3), gastric cancer cell line (SNU16), liver cancer cell line (Hep3B 2.1-7) and other tumor suppressive effects have been observed in vivo, the tumor suppression rate of subcutaneous tumors in nude mice could reach 80-110% within 3-4 weeks. […] Therefore, the preferred compounds “IIIb-08, IIIb-09, IIIb-45, IIIb-50, IIIb-55, IIIb-56, IIIb-57, IIIb-58, IIIb-60, IIIb-61, IIIb-65” designed and synthesized by the present invention not only have better inhibitory activity, but also have better safety and drug-forming properties, which are valuable for further preclinical studies such as pharmacotoxicology and clinical trials.

The test system of series [6] is hepatocellular carcinoma cell line (Hep3B 2.1-7). The experiment in a line: tumor cell proliferation inhibition (CTG), hepatocellular carcinoma cell line. It is filed as cell-based. As to conditions: Homo sapiens, 72 hours.
The next series concerns the target VEGFR3 (FLT4) (Homo sapiens (Human), UniProt P35916). The experiment in a line: kinase inhibition, Mobility-Shift Assay. As to conditions: 84 μM ATP. It is filed as biochemical.
In series [7] the test system is leukemia cell line (K562). The experiment in a line: tumor cell proliferation inhibition (CTG), leukemia cell line. It is filed as cell-based. Particulars: Homo sapiens, 72 hours.
Another series deals with RET (Homo sapiens (Human), UniProt P07949). The experiment in a line: kinase inhibition, Mobility-Shift Assay. It is filed as biochemical. As to conditions: 23 μM ATP.
Sequence of RET (P07949 29-1114): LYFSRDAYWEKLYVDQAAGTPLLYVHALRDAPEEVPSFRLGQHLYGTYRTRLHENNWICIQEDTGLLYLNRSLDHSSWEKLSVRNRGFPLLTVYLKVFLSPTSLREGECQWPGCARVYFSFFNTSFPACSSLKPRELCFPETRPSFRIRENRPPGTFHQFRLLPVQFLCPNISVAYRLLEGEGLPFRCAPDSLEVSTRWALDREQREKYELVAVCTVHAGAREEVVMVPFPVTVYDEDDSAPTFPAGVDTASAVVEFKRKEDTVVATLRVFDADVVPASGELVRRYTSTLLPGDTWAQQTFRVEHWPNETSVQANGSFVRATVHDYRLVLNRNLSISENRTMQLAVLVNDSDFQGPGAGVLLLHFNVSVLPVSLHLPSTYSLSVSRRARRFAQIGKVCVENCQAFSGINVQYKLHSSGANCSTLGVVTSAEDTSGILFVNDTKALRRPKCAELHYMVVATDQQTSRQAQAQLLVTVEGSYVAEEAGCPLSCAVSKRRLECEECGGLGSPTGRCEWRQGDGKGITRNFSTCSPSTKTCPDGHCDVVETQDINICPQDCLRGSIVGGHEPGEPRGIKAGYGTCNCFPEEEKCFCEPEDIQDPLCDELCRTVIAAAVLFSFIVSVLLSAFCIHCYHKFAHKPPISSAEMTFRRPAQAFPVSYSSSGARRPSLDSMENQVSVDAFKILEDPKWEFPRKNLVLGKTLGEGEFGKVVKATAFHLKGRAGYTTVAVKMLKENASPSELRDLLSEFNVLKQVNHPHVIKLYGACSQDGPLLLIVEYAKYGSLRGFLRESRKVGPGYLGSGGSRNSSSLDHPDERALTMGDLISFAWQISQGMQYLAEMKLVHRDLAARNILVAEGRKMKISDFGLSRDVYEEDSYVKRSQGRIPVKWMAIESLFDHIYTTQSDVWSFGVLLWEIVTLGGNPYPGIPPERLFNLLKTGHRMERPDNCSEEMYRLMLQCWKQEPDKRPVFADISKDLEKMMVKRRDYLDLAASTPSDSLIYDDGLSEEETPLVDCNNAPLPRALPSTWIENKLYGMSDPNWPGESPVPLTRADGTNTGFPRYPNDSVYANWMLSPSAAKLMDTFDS
For a further series, the system named is prostatic cancer (PC-3). The experiment in a line: tumor cell proliferation inhibition (CTG), PC-3. Particulars: 72 hours. It counts as cell-based.
For another series, the target named is VEGFR2 (KDR) (Homo sapiens (Human), UniProt P35968). The series is described as follows: kinase inhibition, Mobility-Shift Assay. As to conditions: VEGFR2, 92 μM ATP. It counts as biochemical.
Series [8] is described as follows: MTD toxicity test in rats. It counts as in vivo. Particulars: 150 mg/kg; for MTD toxicity test, clinical outcome: rat, in vivo; for autopsy results of organs: rats, QD, 14 days, heart, liver, lungs, kidneys, stomach, intestines and other organs.
The next series has as its target hERG potassium channels (Homo sapiens (Human), UniProt Q12809). The experiment in a line: in vitro inhibitory effect of hERG, whole-cell patch clamp. Particulars: whole-cell recording, room temperature. It is filed as cell-based. (Block of hERG is tested as a sign of cardiac risk.)
Series [9] relates to gastric cancer cell line (SNU16). The series is described as follows: tumor cell proliferation inhibition (CTG), gastric cancer cell line. It counts as cell-based. As to conditions: Homo sapiens, SNU-16, 72 hours, read-out: SUN16 IC50.

Sequence of hERG potassium channels (Q12809 whole entry): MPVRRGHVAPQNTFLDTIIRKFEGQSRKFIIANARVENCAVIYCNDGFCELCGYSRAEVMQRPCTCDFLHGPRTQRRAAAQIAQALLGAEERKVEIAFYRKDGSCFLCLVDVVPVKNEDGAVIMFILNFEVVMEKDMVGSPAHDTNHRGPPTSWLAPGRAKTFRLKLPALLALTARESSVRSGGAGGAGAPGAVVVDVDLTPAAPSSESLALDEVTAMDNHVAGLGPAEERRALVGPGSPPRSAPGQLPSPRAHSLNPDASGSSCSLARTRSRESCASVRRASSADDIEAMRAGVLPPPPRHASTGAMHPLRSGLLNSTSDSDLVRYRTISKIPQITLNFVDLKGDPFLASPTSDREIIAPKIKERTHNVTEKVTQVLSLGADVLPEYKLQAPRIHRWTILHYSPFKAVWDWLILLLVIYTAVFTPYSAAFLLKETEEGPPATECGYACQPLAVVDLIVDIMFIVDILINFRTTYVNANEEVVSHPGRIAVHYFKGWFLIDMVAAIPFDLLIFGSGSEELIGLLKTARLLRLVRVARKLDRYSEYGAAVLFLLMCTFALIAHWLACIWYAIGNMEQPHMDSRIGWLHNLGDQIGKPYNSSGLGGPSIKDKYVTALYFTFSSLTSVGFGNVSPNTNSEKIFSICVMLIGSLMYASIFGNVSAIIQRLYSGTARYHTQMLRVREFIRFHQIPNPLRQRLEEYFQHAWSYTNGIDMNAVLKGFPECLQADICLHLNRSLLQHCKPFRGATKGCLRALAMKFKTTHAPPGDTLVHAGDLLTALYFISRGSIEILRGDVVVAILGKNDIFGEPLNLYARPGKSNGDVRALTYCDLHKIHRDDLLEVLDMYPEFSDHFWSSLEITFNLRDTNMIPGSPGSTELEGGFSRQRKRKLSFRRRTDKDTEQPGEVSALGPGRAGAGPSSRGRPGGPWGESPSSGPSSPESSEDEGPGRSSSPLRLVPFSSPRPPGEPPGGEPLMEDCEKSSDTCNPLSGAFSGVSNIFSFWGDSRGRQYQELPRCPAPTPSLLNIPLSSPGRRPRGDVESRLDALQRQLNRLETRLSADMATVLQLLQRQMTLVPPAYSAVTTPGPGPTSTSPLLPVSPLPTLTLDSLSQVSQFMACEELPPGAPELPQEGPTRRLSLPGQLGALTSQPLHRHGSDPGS
Sequence of VEGFR1 (FLT1) (P17948 27-1338): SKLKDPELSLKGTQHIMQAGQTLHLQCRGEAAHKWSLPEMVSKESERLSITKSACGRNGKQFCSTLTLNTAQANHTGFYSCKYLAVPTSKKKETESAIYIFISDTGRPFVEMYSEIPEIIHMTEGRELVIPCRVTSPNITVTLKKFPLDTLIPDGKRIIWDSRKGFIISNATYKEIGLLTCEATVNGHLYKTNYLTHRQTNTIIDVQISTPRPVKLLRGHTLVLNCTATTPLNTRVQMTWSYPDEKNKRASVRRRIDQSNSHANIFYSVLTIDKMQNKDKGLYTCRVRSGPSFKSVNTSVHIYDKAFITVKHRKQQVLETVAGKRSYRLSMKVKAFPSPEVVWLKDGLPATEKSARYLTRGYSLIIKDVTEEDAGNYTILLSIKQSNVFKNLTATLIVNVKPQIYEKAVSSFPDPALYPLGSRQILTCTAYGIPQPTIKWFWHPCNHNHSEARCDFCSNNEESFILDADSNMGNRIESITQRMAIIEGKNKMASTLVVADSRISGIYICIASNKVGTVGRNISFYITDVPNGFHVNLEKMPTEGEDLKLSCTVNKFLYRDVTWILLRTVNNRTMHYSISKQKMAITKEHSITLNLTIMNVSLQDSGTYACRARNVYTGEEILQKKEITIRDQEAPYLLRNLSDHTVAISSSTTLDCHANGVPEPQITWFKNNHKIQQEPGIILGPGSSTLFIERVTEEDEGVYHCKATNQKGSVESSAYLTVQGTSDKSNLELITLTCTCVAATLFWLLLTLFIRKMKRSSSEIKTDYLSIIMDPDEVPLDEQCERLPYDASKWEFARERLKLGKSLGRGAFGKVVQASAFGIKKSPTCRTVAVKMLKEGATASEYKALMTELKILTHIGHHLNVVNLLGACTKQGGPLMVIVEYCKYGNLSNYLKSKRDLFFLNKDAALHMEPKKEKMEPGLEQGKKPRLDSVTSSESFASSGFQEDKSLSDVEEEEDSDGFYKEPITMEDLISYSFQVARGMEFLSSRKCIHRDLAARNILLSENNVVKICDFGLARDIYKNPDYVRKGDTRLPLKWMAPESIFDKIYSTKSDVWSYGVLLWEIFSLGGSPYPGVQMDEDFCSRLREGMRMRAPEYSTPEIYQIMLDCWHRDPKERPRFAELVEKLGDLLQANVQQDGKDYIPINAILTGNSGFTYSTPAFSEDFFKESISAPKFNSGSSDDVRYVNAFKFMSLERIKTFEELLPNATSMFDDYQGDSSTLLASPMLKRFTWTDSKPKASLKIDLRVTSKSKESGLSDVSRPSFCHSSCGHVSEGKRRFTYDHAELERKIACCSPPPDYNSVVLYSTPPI
Sequence of FGFR2 (P21802 22-821): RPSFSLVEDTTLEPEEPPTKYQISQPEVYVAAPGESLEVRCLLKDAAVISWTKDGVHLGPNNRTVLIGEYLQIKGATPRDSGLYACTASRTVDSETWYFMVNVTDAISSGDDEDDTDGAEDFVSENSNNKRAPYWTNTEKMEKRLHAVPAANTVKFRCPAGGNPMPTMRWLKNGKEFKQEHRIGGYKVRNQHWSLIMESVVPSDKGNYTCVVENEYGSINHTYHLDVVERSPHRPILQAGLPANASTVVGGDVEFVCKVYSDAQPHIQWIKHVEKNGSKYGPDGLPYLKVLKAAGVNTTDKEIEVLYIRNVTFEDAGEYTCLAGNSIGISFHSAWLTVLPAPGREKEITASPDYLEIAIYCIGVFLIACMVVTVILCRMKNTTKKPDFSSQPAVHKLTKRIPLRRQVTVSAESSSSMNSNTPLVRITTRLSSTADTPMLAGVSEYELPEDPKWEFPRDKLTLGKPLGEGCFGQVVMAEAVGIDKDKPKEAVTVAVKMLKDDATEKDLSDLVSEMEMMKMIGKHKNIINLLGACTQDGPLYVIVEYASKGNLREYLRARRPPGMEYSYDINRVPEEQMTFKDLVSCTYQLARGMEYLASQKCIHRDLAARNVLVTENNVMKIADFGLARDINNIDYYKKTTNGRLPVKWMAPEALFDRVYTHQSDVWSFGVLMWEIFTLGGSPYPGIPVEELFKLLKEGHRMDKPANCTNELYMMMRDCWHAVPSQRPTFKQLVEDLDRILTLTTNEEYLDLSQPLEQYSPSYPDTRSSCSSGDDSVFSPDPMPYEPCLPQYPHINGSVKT

Consider `COc1cc2nccc(Oc3c(F)cc(NC(=O)NC4CC4)c(Cl)c3F)c2cc1C(=O)NCC(F)F` [IIIb-08], for which the IC50 (commonly the concentration that inhibits the measured activity by half) in [1] is < 2500 nM; in [2], < 5000 nM; on FGFR2, < 50 nM; on VEGFR1 (FLT1), < 5 nM; in series [3], < 5000 nM; in series [4], < 2500 nM. For the same compound, the IC50 is < 2500 nM in series [6]; < 5 nM at VEGFR3 (FLT4); < 5000 nM in series [7]; < 5 nM on RET; 5000 to 10000 nM in the series on prostatic cancer (PC-3); < 5 nM at VEGFR2 (KDR). Moreover, the IC50 on hERG potassium channels was > 30000 nM; in [9], < 5000 nM. Besides, the “tumor suppression rate of subcutaneous tumors” value (from here on “tumor suppression rate”) in series [5] is reported as 80-110%. In series [8], the “MTD toxicity test, clinical outcome” value was “no abnormalities such as death”. In series [8], the “autopsy results of organs” value was “did not reveal any abnormal changes”.

As to `COc1cc2nccc(Oc3c(F)cc(NC(=O)NC4CC4)c(Cl)c3F)c2cc1C(=O)NCC(F)(F)F` [IIIb-09], the IC50 in series [1] is < 2500 nM; in series [2], < 5000 nM; at FGFR2, 50 to 100 nM; on VEGFR1 (FLT1) it was 5 to 10 nM; in [3], < 5000 nM; in [4] it was < 2500 nM. The half-inhibitory concentration (IC50) is < 2500 nM in series [6]; < 5 nM at VEGFR3 (FLT4); < 5000 nM in series [7]; 5 to 10 nM on RET; > 10000 nM in the series with prostatic cancer (PC-3); < 5 nM at VEGFR2 (KDR). Besides, the figures for the half-inhibitory concentration (IC50) (at hERG potassium channels; in series [9]) were > 30000 nM and < 5000 nM, respectively. Further, in [5], the “tumor suppression rate” value is listed as 80-110%. In addition, the “MTD toxicity test, clinical outcome” value in series [8] is “no abnormalities such as death”. In series [8], the “autopsy results of organs” value is given as “did not reveal any abnormal changes”.

For `COc1cc2nccc(Oc3c(F)cc(NC(=O)NC4CC4)c(Cl)c3F)c2cc1C(=O)NC[C@@H](O)CO` [IIIb-21], the IC50 in [1] is < 2500 nM; in series [2], > 10000 nM; at FGFR2, 50 to 100 nM; on VEGFR1 (FLT1), < 5 nM; in series [3], 5000 to 10000 nM; in [4], < 2500 nM. In addition, the 50% inhibitory concentration (IC50) is 2500 to 5000 nM in [6]; < 5 nM on VEGFR3 (FLT4); 5000 to 10000 nM in series [7]; 5 to 10 nM at RET; > 10000 nM with prostatic cancer (PC-3); < 5 nM on VEGFR2 (KDR). Also, the IC50 in [9] was > 10000 nM.

As to `COc1cc2nccc(Oc3c(F)cc(NC(=O)NC4CC4)c(Cl)c3F)c2cc1C(=O)NCC#N` [IIIb-45], the IC50 in series [1] was < 2500 nM; in [2], < 5000 nM; at FGFR2 it was < 50 nM; at VEGFR1 (FLT1) it was < 5 nM; in series [3] it was < 5000 nM; in series [4] it was < 2500 nM. For the same compound, the IC50 in series [6] is < 2500 nM; on VEGFR3 (FLT4), < 5 nM; in series [7] it was < 5000 nM; at RET it was < 5 nM; with prostatic cancer (PC-3), 5000 to 10000 nM; on VEGFR2 (KDR), < 5 nM. The IC50 against hERG potassium channels was > 30000 nM; in series [9], < 5000 nM. Further, the “tumor suppression rate” value in series [5] is recorded as 80-110%. In [8], the “MTD toxicity test, clinical outcome” value is on record as “no abnormalities such as death”. Also, the “autopsy results of organs” value in [8] is recorded as “did not reveal any abnormal changes”.

As for `COc1cc2nccc(Oc3c(F)cc(NC(=O)NC4CC4)c(Cl)c3F)c2cc1C(=O)NCCC#N` [IIIb-50], the IC50 in series [1] was < 2500 nM; in [2], < 5000 nM; on FGFR2, < 50 nM; on VEGFR1 (FLT1) it was < 5 nM; in [3] it was < 5000 nM; in series [4], < 2500 nM. Also, the IC50 in series [6] was < 2500 nM; at VEGFR3 (FLT4), < 5 nM; in series [7] it was < 5000 nM; on RET it was < 5 nM; in the series with prostatic cancer (PC-3), 5000 to 10000 nM; on VEGFR2 (KDR) it was < 5 nM. For the same compound, the IC50 was > 30000 nM against hERG potassium channels and < 5000 nM in series [9]. Further, in series [5], the “tumor suppression rate” value is given as 80-110%. Further, the “MTD toxicity test, clinical outcome” value in [8] was “no abnormalities such as death”. Also, the “autopsy results of organs” value in series [8] is reported as “did not reveal any abnormal changes”.

Turning to `NC(=O)c1cc2c(Oc3c(F)cc(NC(=O)NC4CC4)c(Cl)c3F)ccnc2cc1OCCF` [IIIb-55], the IC50 in series [1] was < 2500 nM; in [2] it was < 5000 nM; on FGFR2, < 50 nM; at VEGFR1 (FLT1), < 5 nM; in series [3] it was < 5000 nM; in series [4], < 2500 nM. Besides, the half-maximal inhibitory concentration (IC50) in series [6] is < 2500 nM; on VEGFR3 (FLT4), < 5 nM; in series [7], < 5000 nM; at RET, 5 to 10 nM; with prostatic cancer (PC-3) it was 5000 to 10000 nM; on VEGFR2 (KDR), < 5 nM. The half-inhibitory concentration (IC50) is > 30000 nM against hERG potassium channels and < 5000 nM in series [9]. In addition, the “tumor suppression rate” value in series [5] is reported as 80-110%. In addition, the “MTD toxicity test, clinical outcome” value in series [8] is “no abnormalities such as death”. The “autopsy results of organs” value in series [8] was “did not reveal any abnormal changes”.

Consider `NC(=O)c1cc2c(Oc3c(F)cc(NC(=O)NC4CC4)c(Cl)c3F)ccnc2cc1OCC(F)F` [IIIb-56], for which the IC50 in series [1] is < 2500 nM; in series [2], < 5000 nM; on FGFR2 it was < 50 nM; at VEGFR1 (FLT1) it was < 5 nM; in series [3], < 5000 nM; in series [4] it was < 2500 nM. In addition, the IC50 is < 2500 nM in [6]; < 5 nM on VEGFR3 (FLT4); < 5000 nM in series [7]; < 5 nM on RET; 5000 to 10000 nM in the series on prostatic cancer (PC-3); < 5 nM on VEGFR2 (KDR). The IC50 against hERG potassium channels is > 30000 nM; in series [9] it was < 5000 nM. Moreover, the “tumor suppression rate” value in series [5] is recorded as 80-110%. For the same compound, in [8], the “MTD toxicity test, clinical outcome” value is reported as “no abnormalities such as death”. For the same compound, the “autopsy results of organs” value in series [8] is reported as “did not reveal any abnormal changes”.

On to `NC(=O)c1cc2c(Oc3c(F)cc(NC(=O)NC4CC4)c(Cl)c3F)ccnc2cc1OCC(F)(F)F` [IIIb-57], for which the half-maximal inhibitory concentration (IC50) in series [1] is < 2500 nM; in series [2] it was < 5000 nM; at FGFR2 it was < 50 nM; on VEGFR1 (FLT1), < 5 nM; in [3] it was < 5000 nM; in series [4], < 2500 nM. In addition, the IC50 is < 2500 nM in [6]; < 5 nM on VEGFR3 (FLT4); < 5000 nM in series [7]; < 5 nM on RET; 5000 to 10000 nM in the series with prostatic cancer (PC-3); < 5 nM at VEGFR2 (KDR). Also, the results for the IC50 (on hERG potassium channels; in series [9]) were > 30000 nM and < 5000 nM, respectively. Besides, the “tumor suppression rate” value in series [5] is 80-110%. Further, the “MTD toxicity test, clinical outcome” value in series [8] is listed as “no abnormalities such as death”. Besides, the “autopsy results of organs” value in series [8] is recorded as “did not reveal any abnormal changes”.

For the compound `COc1cc2nccc(Oc3ccc(NC(=O)NC4CC4)c(Cl)c3)c2cc1C(N)=O` [Lenvatinib, lenvatinib, reference compound], the IC50 was > 5000 nM in series [1]; > 10000 nM in series [2]; 50 to 100 nM on FGFR2; 5 to 10 nM at VEGFR1 (FLT1); > 10000 nM in [3]; > 5000 nM in [4]. The IC50 was > 5000 nM in [6]; < 5 nM on VEGFR3 (FLT4); 5000 to 10000 nM in series [7]; > 10000 nM in the series on prostatic cancer (PC-3); 5000 to 10000 nM in series [9].
